{"source": "paper PMC2858449", "about": "(Journal of immunology (Baltimore, Md. : 1950), 2009)", "key": {"CD8^+ T cells [1]": {"test_system": "CD8^+ T cells", "experiment": "Intracellular cytokine staining for IFN-γ, IL-2 and TNF-α", "type": "cell-based, BALB/c mice", "conditions": "HIV-1BaL Env-immunized mice (DNA-primed/rAd-boosted); peptide stimulation"}, "CD8^+ T cells [2]": {"test_system": "CD8^+ T cells", "type": "cell-based, BALB/c mice", "conditions": "intracellular IFN-γ"}}, "note": "Read-outs that look alike come from different tables or passages of the source."}
{"sequence": "IGPGRAFYA [PA9]", "values": [{"measurement": "proportion of triple-positive (IFN-γ, IL-2, TNF-α) CD8^+ T cells", "setting": "CD8^+ T cells [1]", "value": 46, "unit": "%"}]}
{"sequence": "IGPGRAFYTT [PT10]", "values": [{"measurement": "recall response to peptide (in words)", "setting": "CD8^+ T cells [2]; mice immunized with the HIV-1IIIB vaccine", "value": "failed to respond"}]}
{"sequence": "RGPGRAFVTI [P18I10, reference compound]", "values": [{"measurement": "recall response to peptide (in words)", "setting": "CD8^+ T cells [2]; mice primed with HIV-1BaL DNA and boosted with rAd", "value": "did not respond"}]}
